Our source for the IC50 values is patent US20250034135A1, “ANTI-APOPTOTIC PROTEIN BCL-2 INHIBITOR, PHARMACEUTICAL COMPOSITION AND USES THEREOF” (HANGZHOU HEALZEN THERAPEUTICS CO., LTD., priority 2021, published 2025).

One experiment deals with BCL-XL (Homo sapiens (Human), UniProt Q07817). Put plainly: BCL-XL enzyme molecular level activity test (HTRF, binding to BIM peptide). To be noted: binding of BCL-XL to BIM peptide, values in nM, read-out: BCL-XL inhibitory activity (IC50). The protocol:
In a white shallow 384-well plate, a total reaction volume was 10 μL. Specifically, it included 2 μL of the compound to be tested (2% DMSO), […] His-tagged recombinant protein, and 4 μL Biotin-tagged BIM protein peptide. After 1 hour of reaction, 5 μL of each Anti-His and streptavidin-tagged XL665 antibody diluents diluted with a detection buffer were added. After incubating at room temperature for 4 hours, the values were read using the Envision multifunctional microplate reader to detect the effect of the compound to be tested on the binding ability of BCL-XL to BIM protein peptides. The Envision parameter settings were exciting light at 320 nm, and emitting light at 615 nm and 665 nm. The binding ability of anti-apoptotic proteins to Bim protein peptides was indirectly reflected by the signal ratio of 665 nm and 615 nm. In the reaction, background wells without BCL2 and active wells for full binding of recombinant proteins without compounds and Bim protein peptides were set up.
Background: Time-resolved FRET reads energy transfer from a long-lived donor to a nearby acceptor.

The target of the next experiment is BCL2 (Homo sapiens (Human), UniProt P10415). Description: Molecular level activity test of anti-apoptotic protein BCL2 (HTRF, binding to Bim peptide). To be noted: HTRF, binding of BCL2 to Bim peptide; read-out: BCL2 nM (inhibitory activity, IC50). The gist of the method: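 Competition binding format: recombinant His-BCL2 and a biotin-Bim peptide are incubated with compound for 1 h, followed by 4 h at room temperature with HTRF detection antibodies.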

pIC50: −log10 of the molar value.

Chain of BCL2 (P10415 whole entry): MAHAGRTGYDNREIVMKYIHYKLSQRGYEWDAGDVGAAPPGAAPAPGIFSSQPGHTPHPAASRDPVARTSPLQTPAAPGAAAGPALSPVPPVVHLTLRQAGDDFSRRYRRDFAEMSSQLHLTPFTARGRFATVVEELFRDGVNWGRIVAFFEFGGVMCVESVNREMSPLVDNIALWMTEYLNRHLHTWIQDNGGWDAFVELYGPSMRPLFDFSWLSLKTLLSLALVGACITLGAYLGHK
Chain of BCL-XL (Q07817 whole entry): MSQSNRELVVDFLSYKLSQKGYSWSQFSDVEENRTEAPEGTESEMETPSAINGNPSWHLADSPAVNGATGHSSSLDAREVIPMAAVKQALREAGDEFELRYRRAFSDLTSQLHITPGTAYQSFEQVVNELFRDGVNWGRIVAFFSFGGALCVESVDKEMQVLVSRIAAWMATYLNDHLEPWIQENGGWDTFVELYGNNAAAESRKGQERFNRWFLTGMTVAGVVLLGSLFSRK

Regarding `COc1ccc(CN2CCN(C3CC4(CCN(c5cc(Oc6cnc7[nH]ccc7c6)c(C(=O)NS(=O)(=O)c6ccc(NCC7(F)CCOCC7)c([N+](=O)[O-])c6)cc5F)CC4)C3)C(c3ccccc3C(C)C)C2)cc1` (stereo not shown) [compound 066, 2-((1H-pyrrolo[2,3-b]pyrid-5-yl)oxy)-5-fluoro-N-((4-(((4-fluorotetrahydro-2H-pyran-4-yl)methyl)amino)-3-nitrophenyl)sulfonyl)-4-(2-(2-(2-isopropylphenyl)-4-(4-methoxybenzyl)piperazin-1-yl)-7-azaspiro[3.5]non-7-yl)benzamide], the IC50 on BCL-XL is more than 500 nM. Further, the pIC50 at BCL2 was more than 8.00.

As for `CC(C)c1ccccc1[C@@H]1CN(Cc2ccc(C(F)(F)F)cc2)CCN1C1CC2(CCN(c3cc(Oc4cnc5[nH]ccc5c4)c(C(=O)NS(=O)(=O)c4ccc(NCC5(F)CCOCC5)c([N+](=O)[O-])c4)cc3F)CC2)C1` [compound 188, (R)-2-((1H-pyrrolo[2,3-b]pyrid-5-yl)oxy)-5-fluoro-N-((4-(((4-fluorotetrahydro-2H-pyran-4-yl)methyl)amino)-3-nitrophenyl)sulfonyl)-4-(2-(2-(2-isopropylphenyl)-4-(4-(trifluoromethyl)benzyl)piperazin-1-yl)-7-azaspiro[3.5]non-7-yl)benzamide], the IC50 on BCL-XL is more than 500 nM. Also, the pIC50 at BCL2 was more than 8.00. Regarding `CC(C)c1ccc(CN2CCN(C3CC4(CCN(c5cc(Oc6cnc7[nH]ccc7c6)c(C(=O)NS(=O)(=O)c6ccc(NCC7(F)CCOCC7)c([N+](=O)[O-])c6)cc5F)CC4)C3)[C@H](c3ccccc3C(C)C)C2)cc1` [compound 193, (R)-2-((1H-pyrrolo[2,3-b]pyrid-5-yl)oxy)-5-fluoro-N-((4-(((4-fluorotetrahydro-2H-pyran-4-yl)methyl)amino)-3-nitrophenyl)sulfonyl)-4-(2-(4-(4-isopropylbenzyl)-2-(2-isopropylphenyl)piperazin-1-yl)-7-azaspiro[3.5]non-7-yl)benzamide], on BCL-XL, the IC50 is more than 500 nM. Besides, the pIC50 at BCL2 was more than 8.00.

Turning to `CC(C)c1ccccc1[C@@H]1CN(Cc2ccc(C3CC3)cc2)CCN1C1CC2(CCN(c3cc(Oc4cnc5[nH]ccc5c4)c(C(=O)NS(=O)(=O)c4ccc(NCC5(F)CCOCC5)c([N+](=O)[O-])c4)cc3F)CC2)C1` [compound 195, (R)-2-((1H-pyrrolo[2,3-b]pyrid-5-yl)oxy)-4-(2-(4-(4-cyclopropylbenzyl)-2-(2-isopropylphenyl)piperazin-1-yl)-7-azaspiro[3.5]non-7-yl)-5-fluoro-N-((4-(((4-fluorotetrahydro-2H-pyran-4-yl)methyl)amino)-3-nitrophenyl)sulfonyl)benzamide], the IC50 on BCL-XL is more than 500 nM. For the same compound, at BCL2, the pIC50 is more than 8.00. Consider `CC(C)c1ccccc1[C@@H]1CN(Cc2cccc3c2OCO3)CCN1C1CC2(CCN(c3cc(Oc4cnc5[nH]ccc5c4)c(C(=O)NS(=O)(=O)c4ccc(NCC5(F)CCOCC5)c([N+](=O)[O-])c4)cc3F)CC2)C1` [compound 204, (R)-2-((1H-pyrrolo[2,3-b]pyrid-5-yl)oxy)-4-(2-(4-(benzo[d][1,3]dioxocyclopent-4-ylmethyl)-2-(2-isopropylphenyl)piperazin-1-yl)-7-azaspiro[3.5]non-7-yl)-5-fluoro-N-((4-(((4-fluorotetrahydro-2H-pyran-4-yl)methyl)amino)-3-nitrophenyl)sulfonyl)benzamide], for which the IC50 on BCL-XL is more than 500 nM. In addition, the pIC50 on BCL2 is more than 8.00.

On to `COc1ccc(CN2CCN(C3CC4(CCN(c5cc(Oc6cnc7[nH]ccc7c6)c(C(=O)NS(=O)(=O)c6ccc(NCC7(F)CCOCC7)c([N+](=O)[O-])c6)cc5F)CC4)C3)[C@H](c3ccccc3C(C)C)C2)c2c1OCO2` [compound 205], for which the IC50 on BCL-XL is more than 500 nM. Also, the negative logarithm of the IC50 (pIC50) at BCL2 was more than 8.00. Take `CC(C)c1ccccc1[C@@H]1CN(Cc2ccc3c(c2)OCCO3)CCN1C1CC2(CCN(c3cc(Oc4cnc5[nH]ccc5c4)c(C(=O)NS(=O)(=O)c4ccc(NCC5(F)CCOCC5)c([N+](=O)[O-])c4)cc3F)CC2)C1` [compound 207, (R)-2-((1H-pyrrolo[2,3-b]pyrid-5-yl)oxy)-4-(2-(4-((2,3-dihydrobenzo[b][1,4]dioxane-6-yl)methyl)-2-(2-isopropylphenyl)piperazin-1-yl)-7-azaspiro[3.5]non-7-yl)-5-fluoro-N-((4-(((4-fluorotetrahydro-2H-pyran-4-yl)methyl)amino)-3-nitrophenyl)sulfonyl)benzamide]: the IC50 on BCL-XL is more than 500 nM. Further, at BCL2, the pIC50 is more than 8.00. Consider `CC(C)c1ccccc1[C@@H]1CN(Cc2ccc(C(F)(F)F)cc2)CCN1C1CC2(CCN(c3cc(Oc4cnc5[nH]ccc5c4)c(C(=O)NS(=O)(=O)c4ccc(NC[C@H]5CC[C@](C)(O)CC5)c([N+](=O)[O-])c4)cc3F)CC2)C1` [compound 216, 2-((1H-pyrrolo[2,3-b]pyrid-5-yl)oxy)-5-fluoro-N-((4-((((1r, 4r)-4-hydroxy-4-methylcyclohexyl)methyl)amino)-3-nitrophenyl)sulfonyl)-4-(2-((R)-2-(2-isopropylphenyl)-4-(4-(trifluoromethyl)benzyl)piperazin-1-yl)-7-azaspiro[3.5]non-7-yl)benzamide], for which the IC50 on BCL-XL is more than 500 nM. On BCL2, the pIC50 was more than 8.00. With `CC(C)c1ccccc1[C@@H]1CN(Cc2c(F)cccc2F)CCN1C1CC2(CCN(c3cc(Oc4cnc5[nH]ccc5c4)c(C(=O)NS(=O)(=O)c4ccc(NC[C@H]5CC[C@](C)(O)CC5)c([N+](=O)[O-])c4)cc3F)CC2)C1` [compound 217, 2-((1H-pyrrolo[2,3-b]pyrid-5-yl)oxy)-4-(2-((R)-4-(2,6-difluorobenzyl)-2-(2-isopropylphenyl)piperazin-1-yl)-7-azaspiro[3.5]non-7-yl)-5-fluoro-N-((4-((((1r, 4r)-4-hydroxy-4-methylcyclohexyl)methyl)amino)-3-nitrophenyl)sulfonyl)benzamide], the IC50 at BCL-XL was more than 500 nM. For the same compound, the pIC50 at BCL2 was more than 8.00. On the same counts, the results for `CC(C)c1ccccc1[C@@H]1CN(Cc2ccc3c(c2)OCO3)CCN1C1CC2(CCN(c3cc(Oc4cnc5[nH]ccc5c4)c(C(=O)NS(=O)(=O)c4ccc(NC[C@H]5CC[C@](C)(O)CC5)c([N+](=O)[O-])c4)cc3F)CC2)C1` [compound 224, 2-((1H-pyrrolo[2,3-b]pyrid-5-yl)oxy)-4-(2-((R)-4-(benzo[d][1,3]dioxocyclopent-5-ylmethyl)-2-(2-isopropylphenyl)piperazin-1-yl)-7-azaspiro[3.5]non-7-yl)-5-fluoro-N-((4-((((1r, 4r)-4-hydroxy-4-methylcyclohexyl)methyl)amino)-3-nitrophenyl)sulfonyl)benzamide] are more than 500 nM and more than 8.00.

Take `CC(C)c1ccccc1[C@@H]1CN(Cc2ccncc2)CCN1C1CC2(CCN(c3cc(Oc4cnc5[nH]ccc5c4)c(C(=O)NS(=O)(=O)c4ccc(NC[C@H]5CC[C@](C)(O)CC5)c([N+](=O)[O-])c4)cc3F)CC2)C1` [compound 231, 2-((1H-pyrrolo[2,3-b]pyrid-5-yl)oxy)-5-fluoro-N-((4-((((1r, 4r)-4-hydroxy-4-methylcyclohexyl)methyl)amino)-3-nitrophenyl)sulfonyl)-4-(2-((R)-2-(2-isopropylphenyl)-4-(pyrid-4-ylmethyl)piperazin-1-yl)-7-azaspiro[3.5]non-7-yl)benzamide]: at BCL2, the pIC50 was more than 8.00. Consider `CC(C)c1ccccc1[C@@H]1CN(Cc2cccnc2)CCN1C1CC2(CCN(c3cc(Oc4cnc5[nH]ccc5c4)c(C(=O)NS(=O)(=O)c4ccc(NC[C@H]5CC[C@](C)(O)CC5)c([N+](=O)[O-])c4)cc3F)CC2)C1` [compound 232, 2-((1H-pyrrolo[2,3-b]pyrid-5-yl)oxy)-5-fluoro-N-((4-((((1r, 4r)-4-hydroxy-4-methylcyclohexyl)methyl)amino)-3-nitrophenyl)sulfonyl)-4-(2-((R)-2-(2-isopropylphenyl)-4-(pyrid-3-ylmethyl)piperazin-1-yl)-7-azaspiro[3.5]non-7-yl)benzamide], for which, on BCL2, the pIC50 was more than 8.00.

With `CC(C)c1ccccc1[C@@H]1CN(Cc2ccccn2)CCN1C1CC2(CCN(c3cc(Oc4cnc5[nH]ccc5c4)c(C(=O)NS(=O)(=O)c4ccc(NC[C@H]5CC[C@](C)(O)CC5)c([N+](=O)[O-])c4)cc3F)CC2)C1` [compound 233, 2-((1H-pyrrolo[2,3-b]pyrid-5-yl)oxy)-5-fluoro-N-((4-((((1r, 4r)-4-hydroxy-4-methylcyclohexyl)methyl)amino)-3-nitrophenyl)sulfonyl)-4-(2-((R)-2-(2-isopropylphenyl)-4-(pyrid-2-ylmethyl)piperazin-1-yl)-7-azaspiro[3.5]non-7-yl)benzamide], the pIC50 at BCL2 is more than 8.00.

“(S)-2-((1H-pyrrolo[2,3-b]pyrid-5-yl)oxy)-N-(7-(((4-fluorotetrahydro-2H-pyran-4-yl)methyl)amino)-6-nitro-1H-benzo[d]imidazol-4-yl)sulfonyl)-4-(2-(2-(2-isopropylphenyl)pyrrolidin-1-yl)-7-azaspiro[3.5]non-7-yl)benzamide [compound 005]”: on BCL2, the pIC50 is more than 8.00. For “(S)-2-((1H-pyrrolo[2,3-b]pyrid-5-yl)oxy)-N-((7-(((4-fluoro-1-(oxocyclobut-3-yl)piperid-4-yl)methyl)amino)-6-nitro-1H-benzo[d]imidazol-4-yl)sulfonyl)-4-(2-(2-(2-isopropylphenyl)pyrrolidin-1-yl)-7-azaspiro[3.5]non-7-yl)benzamide [compound 003]”, the pIC50 on BCL2 is more than 8.00.

Usually IC50 stands for the midpoint of a concentration-inhibition curve. The pIC50 is −log10 of the IC50, conventionally taken in molar units.
